# Data from patent publication US8557805B2, “Fused ring compound and use thereof” (Takeda Pharmaceutical Company Limited, priority 2008, dated 2013).
# Target: T1, human liver GK (GST-hLGK1) (Homo sapiens, UniProt P35557)
# T1 construct: with a BamHI site added to immediately before the initiation codon; made in house; host or cells: Escherichia coli BL21 (Stratagene), plasmid pGEX6P-2/hLGK1
# T1 sequence (P35557 1-464 isoform P35557-3): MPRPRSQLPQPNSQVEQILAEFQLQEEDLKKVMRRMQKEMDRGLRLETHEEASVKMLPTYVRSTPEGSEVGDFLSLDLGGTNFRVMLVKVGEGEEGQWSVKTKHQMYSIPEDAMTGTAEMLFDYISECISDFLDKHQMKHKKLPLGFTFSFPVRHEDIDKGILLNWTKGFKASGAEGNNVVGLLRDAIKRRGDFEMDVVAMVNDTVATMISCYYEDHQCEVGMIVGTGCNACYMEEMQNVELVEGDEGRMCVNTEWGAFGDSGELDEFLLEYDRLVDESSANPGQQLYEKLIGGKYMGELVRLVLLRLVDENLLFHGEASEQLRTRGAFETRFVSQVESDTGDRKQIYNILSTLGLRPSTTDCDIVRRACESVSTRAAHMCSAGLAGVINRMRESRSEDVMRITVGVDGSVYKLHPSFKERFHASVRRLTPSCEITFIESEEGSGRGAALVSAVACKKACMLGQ
# Assay: Determination of GK activity value (Mant-ATP to Mant-ADP conversion, capillary electrophoresis)
# Type: biochemical
# Details: reaction started with 25 mM D-glucose solution, 37° C., 60 min, concentration at midpoint between maximum activity value and control group activity value
# Description: Plasmid DNA to be used for the expression of a protein (GST-hLGK1) containing GST (Glutathione S-transferase) added to the amino terminal of human liver GK in Escherichia coli was prepared as follows.
# First, PCR was performed using human liver cDNA (Marathon Ready cDNA, Clontech Laboratories, Inc.) as a template and two kinds of synthetic DNAs (5′-[…]-3′ (SEQ ID NO: 1) and 5′-[…]-3′ (SEQ ID NO: 2)), and the obtained DNA fragment was closed using a TOPO TA Cloning Kit (Invitrogen Corporation). PCR was performed using the obtained plasmid DNA as a template and a synthetic DNA (5′-[…] CAGAG-3′ (SEQ ID NO: 3)) with a BamHI site added to immediately before the initiation codon, and a synthetic DNA (5′-[…]-3′ (SEQ ID NO: 4)) with an EcoRI site added to immediately after the stop codon. The obtained DNA fragment was subcloned to pGEX6P-2 (Amersham Biosciences K.K.) cleaved with BamHI and EcoRI to give a plasmid (pGEX6P-2/hLGK1) for expression of human liver GK.
# BL21 strain (Stratagene) transformed with pGEX6P-2/hLGK1 obtained in (1) was cultured with shaking at 37° C. for 14 hr in a 200 ml Erlenmeyer flask containing 50 ml of 100 μg/ml ampicillin-containing LB medium. The culture medium (25 ml) was diluted with 225 ml of 100 μg/ml ampicillin-containing LB medium, and further cultured with shaking at 37° C. for 1 hr in a 1 L Erlenmeyer flask. After culture, the Erlenmeyer flask was cooled on ice, 125 μL of 100 mM isopropyl-thio-β-D-galactopyranoside (IPTG) was added (final concentration 50 μM), and cultured at 17° C. for 20 hr. The culture medium was centrifuged, and the obtained fungus was disrupted by ultrasonication. The object protein (GST-hLGK1) was purified from the supernatant using Glutathione Sepharose 4B (Amersham Biosciences K.K.).
# A solution (5 μL) of test compound in 50% dimethyl sulfoxide was added to each well of 384 well black plate (Nalge Nunc International K.K.). Then, a solution (35 μL) obtained by diluting GST-hLGK1 obtained in (2) with measurement buffer (containing 50 mM HEPES (pH 7.4), 200 mM KCl, 5 mM MgCl2, 2.5 mM DTT and 50 μM 2′-(or-3′)-O—(N-methylanthraniloyl)adenosine 5′-triphosphate (Mant-ATP) (Jena Bioscience GmbH)) to 6 μg/mL was added to each well.
# Each well was stood at 37° C. for 10 min, and 25 mM D-glucose solution (10 μL) was added to start the reaction.
# Each well after the reaction was stood at 37° C. for 60 min, and the reaction was quenched by adding 25 μL of a quenching solution (containing 200 mM HEPES (pH 7.4), 20 mM MgCl2, 200 mM EDTA, 0.03% Triton-X 100, 0.3% Coating 3 reagent (Caliper Life Sciences, Inc.)).
# 2′-(or -3′)-O—(N-methylanthraniloyl)adenosine 5′-triphosphate (Mant-ATP, substrate) and Mant-ADP (reaction resultant product) were separated from each well after the reaction by a microchip type capillary electrophoresis apparatus 250 HTS (Caliper Life Sciences, Inc.). The reaction rate [(reaction resultant product peak height)/(reaction resultant product peak height+substrate peak height)×100(%)] was calculated from the ratio of the substrate peak height and reaction resultant product peak height obtained by fluorescence detection (excitation wavelength 355 nm, measurement wavelength 460 nm) and used as the index of GK activity.
# 3.5 As a control group, the reaction rate was calculated in the same manner as above except that “solution in 50% dimethyl sulfoxide (without test compound)” was used instead of “solution of test compound in 50% dimethyl sulfoxide”.
# A concentration dependency curve of the test compound was drawn with the percentage obtained by dividing the reaction rate of the well added with the test compound (test compound addition group) by the reaction rate of the control group was taken as the GK activity value of the test compound, and the concentration of the test compound at the midpoint between the maximum activity value of the test compound addition group and the control group activity value is shown as EC50 value.
row,Compound,EC50 [µM]
1,"CS(=O)(=O)c1ccc(Oc2cc(OC3CCOCC3)c3[nH]c(C4=NCC(CC(N)=O)S4)cc3c2)cn1 (single isomer, unassigned) [Example 32, 2-{2-[5-{[6-(Methylsulfonyl)pyridin-3-yl]oxy}-7-(tetrahydro-2H-pyran-4-yloxy)-1H-indol-2-yl]-4,5-dihydro-1,3-thiazol-5-yl}acetamide]",0.016
2,"CS(=O)(=O)c1ccc(Oc2cc(OC3CCOCC3)c3[nH]c(C4=NCC(CC(N)=O)S4)cc3c2)cn1 (single isomer, unassigned) [Example 33, 2-{2-[5-{[6-(Methylsulfonyl)pyridin-3-yl]oxy}-7-(tetrahydro-2H-pyran-4-yloxy)-1H-indol-2-yl]-4,5-dihydro-1,3-thiazol-5-yl}acetamide]",0.026
3,"CNC(=O)CC1CN=C(c2cc3cc(Oc4ccc(S(C)(=O)=O)nc4)cc(OC4CCOCC4)c3[nH]2)S1 (single isomer, unassigned) [Example 35, N-Methyl-2-{2-[5-{[6-(methylsulfonyl)pyridin-3-yl]oxy}-7-(tetrahydro-2H-pyran-4-yloxy)-1H-indol-2-yl]-4,5-dihydro-1,3-thiazol-5-yl}acetamide]",0.031
4,"CNC(=O)CC1CN=C(c2cc3cc(Oc4ccc(S(C)(=O)=O)nc4)cc(OC4CCOCC4)c3[nH]2)S1 (single isomer, unassigned) [Example 36, N-Methyl-2-{2-[5-{[6-(methylsulfonyl)pyridin-3-yl]oxy}-7-(tetrahydro-2H-pyran-4-yloxy)-1H-indol-2-yl]-4,5-dihydro-1,3-thiazol-5-yl}acetamide]",0.016
5,"CN(C)C(=O)CC1CN=C(c2cc3cc(Oc4ccc(S(C)(=O)=O)nc4)ccc3[nH]2)S1 (single isomer, unassigned) [Example 65, N,N-Dimethyl-2-[2-(5-{[6-(methylsulfonyl)pyridin-3-yl]oxy}-1H-indol-2-yl)-4,5-dihydro-1,3-thiazol-5-yl]acetamide]",0.066
6,"COCCNC(=O)CC1CN=C(c2cc3cc(Oc4ccc(S(C)(=O)=O)nc4)ccc3[nH]2)S1 (single isomer, unassigned) [Example 67, N-(2-Methoxyethyl)-2-[2-(5-{[6-(methylsulfonyl)pyridin-3-yl]oxy}-1H-indol-2-yl)-4,5-dihydro-1,3-thiazol-5-yl]acetamide]",0.089

# Tested on: not given
# Assay: not given
# Details: not given
row,Compound,melting point [°C]
1,"CS(=O)(=O)c1ccc(Oc2cc(OC3CCOCC3)c3[nH]c(C4=NCC(CC(=O)NCCO)S4)cc3c2)cn1 (stereo not shown) [Example 44, N-(2-Hydroxyethyl)-2-{2-[5-{[6-(methylsulfonyl)pyridin-3-yl]oxy}-7-(tetrahydro-2H-pyran-4-yloxy)-1H-indol-2-yl]-4,5-dihydro-1,3-thiazol-5-yl}acetamide]",157 to 158
2,"CS(=O)(=O)c1ccc(Oc2ccc3[nH]c(C4=NCC(CC(=O)O)S4)cc3c2)cn1 (stereo not shown) [Example 52, [2-(5-{[6-(Methylsulfonyl)pyridin-3-yl]oxy}-1H-indol-2-yl)-4,5-dihydro-1,3-thiazol-5-yl]acetic acid]",205 to 208
3,"CCc1cc(Oc2ccc(S(C)(=O)=O)nc2)cc2cc(C3=NCC(CC(=O)O)S3)[nH]c12 (stereo not shown) [Example 60, [2-(7-Ethyl-5-{[6-(methylsulfonyl)pyridin-3-yl]oxy}-1H-indol-2-yl)-4,5-dihydro-1,3-thiazol-5-yl]acetic acid]",230 to 232
4,"CCc1cc(Oc2ccc(S(C)(=O)=O)nc2)cc2cc(C3=NCC(CC(=O)NC)S3)[nH]c12 (stereo not shown) [Example 62, 2-[2-(7-Ethyl-5-{[6-(methylsulfonyl)pyridin-3-yl]oxy}-1H-indol-2-yl)-4,5-dihydro-1,3-thiazol-5-yl]-N-methylacetamide]",189 to 190
5,"CCNC(=O)CC1CN=C(c2cc3cc(Oc4ccc(S(C)(=O)=O)nc4)cc(CC)c3[nH]2)S1 (stereo not shown) [Example 63, N-Ethyl-2-[2-(7-ethyl-5-{[6-(methylsulfonyl)pyridin-3-yl]oxy}-1H-indol-2-yl)-4,5-dihydro-1,3-thiazol-5-yl]acetamide]",227 to 229
6,"CN(C)C(=O)CC1CN=C(c2cc3cc(Oc4ccc(S(C)(=O)=O)nc4)ccc3[nH]2)S1 (stereo not shown) [Example 64, N,N-Dimethyl-2-[2-(5-{[6-(methylsulfonyl)pyridin-3-yl]oxy}-1H-indol-2-yl)-4,5-dihydro-1,3-thiazol-5-yl]acetamide]",190 to 191
7,"COCCNC(=O)CC1CN=C(c2cc3cc(Oc4ccc(S(C)(=O)=O)nc4)ccc3[nH]2)S1 (stereo not shown) [Example 66, N-(2-Methoxyethyl)-2-[2-(5-{[6-(methylsulfonyl)pyridin-3-yl]oxy}-1H-indol-2-yl)-4,5-dihydro-1,3-thiazol-5-yl]acetamide]",174 to 175
8,"CS(=O)(=O)c1ccc(Oc2ccc3[nH]c(C4=NCC(CC(=O)N5CCOCC5)S4)cc3c2)cn1 (stereo not shown) [Example 68, 5-{[6-(Methylsulfonyl)pyridin-3-yl]oxy}-2-[5-(2-morpholin-4-yl-2-oxoethyl)-4,5-dihydro-1,3-thiazol-2-yl]-1H-indole]",168 to 169
9,"Cc1cc(Oc2ccc(S(C)(=O)=O)nc2)cc2cc(C3=NCC(CC(=O)O)S3)[nH]c12 (stereo not shown) [Example 71, [2-(7-Methyl-5-{[6-(methylsulfonyl)pyridin-3-yl]oxy}-1H-indol-2-yl)-4,5-dihydro-1,3-thiazol-5-yl]acetic acid]",248 to 249
10,"Cc1cc(Oc2ccc(S(C)(=O)=O)nc2)cc2cc(C3=NCC(CC(=O)NCC(C)(C)O)S3)[nH]c12 (stereo not shown) [Example 75, N-(2-Hydroxy-2-methylpropyl)-2-[2-(7-methyl-5-{[6-(methylsulfonyl)pyridin-3-yl]oxy}-1H-indol-2-yl)-4,5-dihydro-1,3-thiazol-5-yl]acetamide]",184 to 186
11,"Cc1cc(Oc2ccc(S(C)(=O)=O)nc2)cc2cc(C3=NCC(CC(=O)NC[C@H](C)O)S3)[nH]c12 (stereo partly drawn) [Example 76, N-[(2S)-2-Hydroxypropyl]-2-[2-(7-methyl-5-{[6-(methylsulfonyl)pyridin-3-yl]oxy}-1H-indol-2-yl)-4,5-dihydro-1,3-thiazol-5-yl]acetamide]",170 to 171
12,"Cc1cc(Oc2ccc(S(C)(=O)=O)nc2)cc2cc(C3=NCC(CC(=O)NC[C@@H](C)O)S3)[nH]c12 (stereo partly drawn) [Example 77, N-[(2R)-2-Hydroxypropyl]-2-[2-(7-methyl-5-{[6-(methylsulfonyl)pyridin-3-yl]oxy}-1H-indol-2-yl)-4,5-dihydro-1,3-thiazol-5-yl]acetamide]",168 to 169
13,CNC(=O)CC1CN=C(c2cc3cc(Oc4ccc(S(C)(=O)=O)nc4)ccc3[nH]2)S1 (stereo not shown) [Example 79],172 to 173
